From ChEMBL document CHEMBL3991601, “The target landscape of clinical kinase drugs” (Science, 2017) come the findings set out here.

A word on the Kd: it is the free concentration of one partner at which half of the binding sites on the other are occupied at equilibrium, for simple one-to-one binding.

The target of experiment [1] is Dual specificity mitogen-activated protein kinase kinase 1 (Homo sapiens, UniProt Q02750).
In another experiment the target is Focal adhesion kinase 1 (Homo sapiens, UniProt Q05397).
Experiment [2] has as its target Calcium/calmodulin-dependent protein kinase type II subunit gamma (Homo sapiens, UniProt Q13555).
The target of a further experiment is T1, Glycine--tRNA ligase (Homo sapiens, UniProt P41250).
T1 sequence (P41250 whole entry): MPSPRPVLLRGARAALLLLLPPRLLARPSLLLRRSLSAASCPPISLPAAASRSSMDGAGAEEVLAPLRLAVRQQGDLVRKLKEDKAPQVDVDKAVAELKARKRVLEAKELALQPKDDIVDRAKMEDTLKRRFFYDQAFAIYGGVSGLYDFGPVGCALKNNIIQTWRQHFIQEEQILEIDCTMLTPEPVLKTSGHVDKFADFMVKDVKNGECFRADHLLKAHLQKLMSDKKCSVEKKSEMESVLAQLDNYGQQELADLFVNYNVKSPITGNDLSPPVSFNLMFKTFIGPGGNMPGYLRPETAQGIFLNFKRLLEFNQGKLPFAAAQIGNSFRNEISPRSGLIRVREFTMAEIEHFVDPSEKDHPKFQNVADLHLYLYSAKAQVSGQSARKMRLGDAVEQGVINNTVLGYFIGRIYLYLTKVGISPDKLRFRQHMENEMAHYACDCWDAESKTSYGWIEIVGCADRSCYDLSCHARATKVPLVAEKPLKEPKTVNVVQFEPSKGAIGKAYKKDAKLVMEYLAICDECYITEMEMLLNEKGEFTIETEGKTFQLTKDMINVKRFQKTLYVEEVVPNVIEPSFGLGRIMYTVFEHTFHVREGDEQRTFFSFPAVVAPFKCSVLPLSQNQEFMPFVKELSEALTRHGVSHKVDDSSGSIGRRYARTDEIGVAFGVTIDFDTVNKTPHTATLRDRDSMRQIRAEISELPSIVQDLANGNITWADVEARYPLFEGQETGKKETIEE

The next experiment deals with T2, ADP/ATP translocase 2 (Homo sapiens, UniProt P05141).
T2 sequence (P05141 whole entry): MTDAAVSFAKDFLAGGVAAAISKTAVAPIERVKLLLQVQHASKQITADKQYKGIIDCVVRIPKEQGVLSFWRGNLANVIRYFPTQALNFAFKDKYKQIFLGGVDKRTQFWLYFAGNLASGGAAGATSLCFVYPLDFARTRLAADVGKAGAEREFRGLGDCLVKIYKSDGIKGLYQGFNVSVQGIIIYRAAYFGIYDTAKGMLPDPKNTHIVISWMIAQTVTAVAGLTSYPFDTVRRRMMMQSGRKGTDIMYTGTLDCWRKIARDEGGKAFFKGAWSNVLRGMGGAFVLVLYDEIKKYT

Experiment [3] has as its target Protein kinase C alpha type (Homo sapiens, UniProt P17252).
Experiment [4] has as its target Tyrosine-protein kinase FRK (Homo sapiens, UniProt P42685).
Experiment [5] concerns the target cAMP-dependent protein kinase catalytic subunit beta (Homo sapiens, UniProt P22694).

Calls of active or inactive are those of the source. For most assays here, no stated cut-off is given here; in the data, actives have a measured Kd and inactives only a lower limit. Bounds are passed on as bounds.

Sequence of Tyrosine-protein kinase FRK (P42685 whole entry): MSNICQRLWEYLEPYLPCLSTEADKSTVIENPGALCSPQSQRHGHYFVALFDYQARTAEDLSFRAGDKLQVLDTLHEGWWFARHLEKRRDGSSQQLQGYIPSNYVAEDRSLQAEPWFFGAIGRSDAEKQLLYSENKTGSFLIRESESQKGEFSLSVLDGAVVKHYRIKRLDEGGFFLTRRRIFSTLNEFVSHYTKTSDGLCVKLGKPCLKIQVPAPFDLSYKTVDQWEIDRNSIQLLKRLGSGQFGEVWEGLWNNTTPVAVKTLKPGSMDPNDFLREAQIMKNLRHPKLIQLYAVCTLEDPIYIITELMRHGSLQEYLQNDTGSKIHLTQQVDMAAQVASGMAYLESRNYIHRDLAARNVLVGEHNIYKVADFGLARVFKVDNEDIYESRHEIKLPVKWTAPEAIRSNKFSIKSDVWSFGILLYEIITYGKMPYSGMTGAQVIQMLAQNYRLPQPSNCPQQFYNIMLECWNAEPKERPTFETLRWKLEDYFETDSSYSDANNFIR
Sequence of Calcium/calmodulin-dependent protein kinase type II subunit gamma (Q13555 whole entry): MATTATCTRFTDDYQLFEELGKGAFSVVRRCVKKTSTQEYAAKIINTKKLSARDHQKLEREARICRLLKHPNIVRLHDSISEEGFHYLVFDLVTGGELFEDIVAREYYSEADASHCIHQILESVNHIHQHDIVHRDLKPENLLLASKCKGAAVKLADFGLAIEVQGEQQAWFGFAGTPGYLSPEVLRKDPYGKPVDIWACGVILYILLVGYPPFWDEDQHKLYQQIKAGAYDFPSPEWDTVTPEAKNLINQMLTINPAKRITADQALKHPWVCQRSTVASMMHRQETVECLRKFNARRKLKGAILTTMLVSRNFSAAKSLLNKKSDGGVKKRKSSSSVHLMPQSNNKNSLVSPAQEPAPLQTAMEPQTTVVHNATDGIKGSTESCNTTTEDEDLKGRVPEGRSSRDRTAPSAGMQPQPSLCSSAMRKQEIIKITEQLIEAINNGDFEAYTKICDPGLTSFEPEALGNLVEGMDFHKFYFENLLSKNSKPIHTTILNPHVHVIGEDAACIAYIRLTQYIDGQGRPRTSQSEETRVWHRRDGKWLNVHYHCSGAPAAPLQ
Sequence of Dual specificity mitogen-activated protein kinase kinase 1 (Q02750 whole entry): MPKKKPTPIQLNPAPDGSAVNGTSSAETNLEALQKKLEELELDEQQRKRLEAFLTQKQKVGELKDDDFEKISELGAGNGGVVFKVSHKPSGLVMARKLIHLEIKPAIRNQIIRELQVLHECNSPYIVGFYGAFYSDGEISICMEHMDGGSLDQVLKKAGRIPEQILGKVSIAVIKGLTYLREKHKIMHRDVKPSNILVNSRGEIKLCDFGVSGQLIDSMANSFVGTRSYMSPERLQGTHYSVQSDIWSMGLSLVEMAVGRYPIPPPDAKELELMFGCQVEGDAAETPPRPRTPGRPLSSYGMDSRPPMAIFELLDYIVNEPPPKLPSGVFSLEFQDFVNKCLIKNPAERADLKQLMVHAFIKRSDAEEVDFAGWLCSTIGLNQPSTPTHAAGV
Sequence of Focal adhesion kinase 1 (Q05397 whole entry): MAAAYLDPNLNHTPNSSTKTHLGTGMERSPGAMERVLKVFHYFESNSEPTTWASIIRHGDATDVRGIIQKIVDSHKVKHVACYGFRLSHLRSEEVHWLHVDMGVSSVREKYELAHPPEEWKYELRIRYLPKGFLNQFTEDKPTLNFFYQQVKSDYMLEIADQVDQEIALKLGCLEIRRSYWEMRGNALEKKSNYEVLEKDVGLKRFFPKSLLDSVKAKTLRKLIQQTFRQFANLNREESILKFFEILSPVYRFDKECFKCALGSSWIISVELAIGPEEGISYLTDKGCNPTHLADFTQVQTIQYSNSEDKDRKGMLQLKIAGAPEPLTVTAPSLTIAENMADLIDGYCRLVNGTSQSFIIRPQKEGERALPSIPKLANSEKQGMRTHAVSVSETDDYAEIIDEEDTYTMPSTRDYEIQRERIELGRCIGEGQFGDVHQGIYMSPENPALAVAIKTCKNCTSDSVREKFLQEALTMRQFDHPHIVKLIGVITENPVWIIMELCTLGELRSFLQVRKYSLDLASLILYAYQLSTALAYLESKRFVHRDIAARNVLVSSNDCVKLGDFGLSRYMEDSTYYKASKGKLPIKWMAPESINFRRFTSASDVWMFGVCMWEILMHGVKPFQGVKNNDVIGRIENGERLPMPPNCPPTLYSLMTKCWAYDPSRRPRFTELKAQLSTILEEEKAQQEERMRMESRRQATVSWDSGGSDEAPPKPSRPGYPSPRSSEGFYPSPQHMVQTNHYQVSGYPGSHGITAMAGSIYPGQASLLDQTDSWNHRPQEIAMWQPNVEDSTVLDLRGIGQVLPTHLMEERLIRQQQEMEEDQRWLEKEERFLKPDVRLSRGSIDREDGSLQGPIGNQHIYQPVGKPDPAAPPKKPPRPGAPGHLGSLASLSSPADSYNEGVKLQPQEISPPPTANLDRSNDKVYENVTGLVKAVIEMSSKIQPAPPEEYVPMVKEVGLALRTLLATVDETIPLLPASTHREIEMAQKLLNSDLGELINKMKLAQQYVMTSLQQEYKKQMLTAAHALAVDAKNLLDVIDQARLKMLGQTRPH

In the case of `C[C@@H](Oc1cc(C(=O)Nc2ccc(C(=O)N3CCN(C)CC3)cc2)nnc1N)c1c(Cl)ccc(F)c1Cl`, the Kd (in experiment [1]; on Focal adhesion kinase 1; in experiment [2]; at Glycine--tRNA ligase; at ADP/ATP translocase 2; in experiment [3]) was > 30 µM (inactive) in each case. Further, the Kd in experiment [4] and in experiment [5] was > 30 µM (inactive) throughout.

Regarding `CC(=O)c1cnc2ccc(-c3cc(Cl)c(O)c(Cl)c3)nc2c1N[C@H]1CC[C@H](CN(C)C)CC1`, the Kd in experiment [1] is 0.968 µM (active); at Focal adhesion kinase 1, 0.118 µM (active); in experiment [2] it was > 30 µM (inactive); on Glycine--tRNA ligase, > 30 µM (inactive); on ADP/ATP translocase 2, > 30 µM (inactive); in experiment [4], > 30 µM (inactive). In experiment [5], the Kd is > 30 µM (inactive).

For the compound `Nc1ncnc2c1c(-c1cccc(OCc3ccccc3)c1)cn2[C@H]1C[C@@H](CN2CCC2)C1` [AEW-541], the Kd was 3.33 µM (active) in experiment [1]; > 30 µM (inactive) on Focal adhesion kinase 1; > 30 µM (inactive) in experiment [2]; > 30 µM (inactive) at Glycine--tRNA ligase; > 30 µM (inactive) at ADP/ATP translocase 2; > 30 µM (inactive) in experiment [3]. For the same compound, the Kd in experiment [4] and in experiment [5] was > 30 µM (inactive) throughout.

For `C=CC(=O)Nc1cc2c(Nc3ccc(F)c(Cl)c3)ncnc2cc1C#CC(C)(C)N1CCN(C)CC1` [AV-412 FREE BASE], the Kd (in experiment [1]; at Focal adhesion kinase 1; in experiment [2]; on Glycine--tRNA ligase; on ADP/ATP translocase 2; in experiment [3]) was > 30 µM (inactive) in each case. The Kd in experiment [4] and in experiment [5] was > 30 µM (inactive) each time.

Take `COc1cc([C@@H]2c3cc4c(cc3[C@H](O)[C@H]3COC(=O)[C@@H]23)OCO4)cc(OC)c1OC` [AXL-1717]: the Kd (in experiment [1]; at Focal adhesion kinase 1; in experiment [2]; on Glycine--tRNA ligase; on ADP/ATP translocase 2; in experiment [3]) was > 30 µM (inactive) each time. Besides, the Kd in experiment [4] and in experiment [5] was > 30 µM (inactive) each time.

`COc1c(OCCCN2CCOCC2)ccc2c1N=C(NC(=O)c1cnc(N)nc1)N1CCN=C21` [COPANLISIB]: the Kd (in experiment [1]; at Focal adhesion kinase 1; in experiment [2]; at Glycine--tRNA ligase; at ADP/ATP translocase 2; in experiment [3]) was > 30 µM (inactive) throughout. The Kd in experiment [4] and in experiment [5] was > 30 µM (inactive) each time.

For `Cn1cc(C2=C(c3cn(C4CCN(Cc5ccccn5)CC4)c4ccccc34)C(=O)NC2=O)c2ccccc21` [ENZASTAURIN], the Kd at Glycine--tRNA ligase and at ADP/ATP translocase 2 was > 30 µM (inactive) in each case.

In the case of `Cc1nc2cc(-n3ncc(C(=O)c4cc5ccccc5[nH]4)c3N)ccc2[nH]1` [FGFR INHIBITOR DEBIO 1347], the Kd (in experiment [1]; on Focal adhesion kinase 1; in experiment [2]; on Glycine--tRNA ligase; on ADP/ATP translocase 2; in experiment [3]) was > 30 µM (inactive) each time. The Kd in experiment [4] and in experiment [5] was > 30 µM (inactive) each time.

As for `O=C(Nc1nc2cccc(-c3ccc(CN4CCS(=O)(=O)CC4)cc3)n2n1)C1CC1` [FILGOTINIB], the Kd (in experiment [1]; at Focal adhesion kinase 1; in experiment [2]; at Glycine--tRNA ligase; on ADP/ATP translocase 2; in experiment [3]) was > 30 µM (inactive) in each case. Further, the Kd in experiment [4] and in experiment [5] was > 30 µM (inactive) each time.

Regarding `O=C(NOCCO)c1cc(CN2OCCCC2=O)c(F)c(F)c1Nc1ccc(I)cc1F` [RO-4987655], the Kd (at Glycine--tRNA ligase; at ADP/ATP translocase 2; in experiment [3]) was > 30 µM (inactive) in each case.
